# Where two headings read alike, the source gives them in different places. Marks after values point to notes of the source that are not given here.
# B1: UDA: GlcNAc-specific plant lectin from Urtica dioica (stinging nettle) (protein, UniProt P11218 24-372, looked up)
# Lectin/endochitinase 1: QRCGSQGGGGTCPALWCCSIWGWCGDSEPYCGRTCENKCWSGERSDHRCGAAVGNPPCGQDRCCSVHGWCGGGNDYCSGSKCQYRCSSSVRGPRVALSGNSTANSIGNVVVTEPLFDQMFSHRKDCPSQGFYSYHSFLVAAESFPAFGTIGDVATRKREVAAFLAHISQATSGERSDVENPHAWGLCHINTTTVTENDFCTSSDWPCAAGKKYSPRGPIQLTHNFNYGLAGQAIGEDLIQNPDLVEKDPIISFKTALWFWMSQHDNKPSCHDIVLNANSAANRIPNKGVIGNIISRAFGHDDFAVRSSSIGFYKRYCDMLGVSYGHDLKYWFDNTPSSEFQRIQMRVAA
# Legend:
# Influenza A H1N1 = assay type: cell-based
# [1] = test system: AB-resistant HIV-1 (N44.3), glycan deletions N461P and N635K; assay: Anti-HIV activity against AB-resistant HIV-1 strain in CEM cells; assay type: cell-based; settings: AB-resistant virus strain (N461P, N635K)
# HCVpp (1a) = assay: HCV pseudoparticle HCVpp (1a) entry into Huh7 cells, luciferase activity; assay type: cell-based; settings: for EC50: Huh7 cells, luciferase activity, mean ±SD
# Text: (§1) Production of pseudoparticles (HCVpp) and cell culture infection. To produce HCVpp, 293T cells (1.2×10^6) were lipofected at a 1:2 ratio of a NLluc^+env^− reporter vector and a vector expressing the HCV envelope glycoproteins as previously described (Bertaux and Dragic, 2006). HCV envelope glycoprotein-encoding sequences corresponding to subtypes 1b and 2b were PCR-amplified from patient sera starting from the last 60 amino acids in the Core to the end of glycoprotein E2. Supernatants were collected 48 hours post lipofection, filtered (0.45μ) and stored at −80° C. until further use. HCVpp were tested by infection of Huh7 cells (5×10^4) and measuring luciferase activity (relative light units, RLU) 48 hours post infection using the Luciferase assay system according to the manufacturer's instructions.
# (§2) To measure inhibition of HCVpp (1a,1b,2b) entry into Huh7 cells by CBA and polyanions, an essentially similar procedure has been used as described above for infectious HCVcc (2a).
# (§3) In order to reveal whether CBA also act at the level of HCV entry, we evaluated their ability to inhibit entry of pseudoparticles comprising the HCV envelope glycoproteins E1 and E2 into Huh-7 cells.
# HUT-78/HIV + Sup T-1 = assay: Giant cell formation in a co-cultivation assay HUT-78/HIV + Sup T-1; assay type: cell-based
# Influenza A H3N2 = assay type: cell-based
# Influenza B = assay type: cell-based; settings: MDCK cell cultures
# HIV-1 (NL4.3) = assay: Anti-HIV activity of Alcian Blue against HIV-1 (NL4.3) in CEM cells
# Procedure: Compounds were tested against HIV-1 strains (HE, NL43, MN, IIIB), HIV-2 strains (ROD, EHO, RF), and SIV (MAC251) for inhibition of virus-induced cytopathicity in MT-4 cells (or CEM or C8166 or Molt4/C8 cells), using the colorimetric test described by Pauwels et al. in J. Virol. […] For example microtiter 96-well plates containing ˜3×10^5 CEM cells/ml, infected with 100 CClD50 of HIV per ml and containing appropriate dilutions of the test compounds were used.
# A rapid and automated assay procedure was used for the in vitro evaluation of anti-HIV agents. An HTLV-1 transformed T4-cell line MT-4, which was previously shown to be highly susceptible to and permissive for HIV infection, can serve as the target cell line. Inhibition of the HIV-induced cytopathogenic effect was used as the end point. The viability of both HIV- and mock-infected cells was also assessed spectrophotometrically via in situ reduction of 3(4,5-dimethylthiazol-2-yl)-2,5-diphenyltetrazolium bromide (MTT). Methods comprise for example the microscopic examination of CEM, C8166 or Molt4/C8 giant (syncytium) cell formation, after 4 to 5 days of incubation at 37° C. in a CO2-controlled humidified atmosphere. […] The percent protection achieved by the compound in HIV-infected cells is calculated by the following formula:
# HIV-1 (strain IIIB) = assay type: cell-based; settings: for EC50: CEM cells
# HCVpp (1b) = assay: HCV pseudoparticle HCVpp (1b) entry into Huh7 cells, luciferase activity; assay type: cell-based; settings: mean ±SD
# Text: as §1, §2, §3
# HIV-2 (strain ROD) = assay: Anti-HIV assay, inhibition of HIV-2(ROD)-induced cytopathicity in CEM cells; assay type: cell-based; settings: virus-induced cytopathicity, mean ±SD
# VSVpp = assay type: cell-based, VSV; settings: read-out: EC50 VSVpp (C8166)
# HCVpp (2b) = assay: HCV pseudoparticle HCVpp (2b) entry into Huh7 cells, luciferase activity; assay type: cell-based; settings: mean ±SD
# Text: as §1, §2, §3
# [2] = test system: HIV-1(IIIB) capture by Raji/DC-SIGN cells; assay: Inhibition of HIV-1 capture by Raji/DC-SIGN cells (p24 Ag); assay type: cell-based; settings: HIV-1 exposed 30 min to compound before addition to cells
# Procedure: Inhibition of HIV-1 capture by Raji/DC-SIGN cells. HIV-1 particles (2.2 μg p24/ml) were exposed to serial dilutions of the test compounds (400 μl) for 30 min. Then, the drug-exposed virus suspensions (500 μl) were mixed with Raji/DC-SIGN cell suspensions (500 μl; 10^6 cells) for 60 min at 37° C. after which the cells were thoroughly washed twice with 40 ml culture medium as described above. […] The Raji/DC-SIGN cell cultures were then analysed for HIV-1 p24 Ag content.
# Raji B-lymphocyte cells were modified to express DC-SIGN at their cell surface (Geijtenbeek et al., 2000; Wu et al., 2004). When Raji/DC-SIGN cells were exposed to cell-free HIV-1(IIIB) particles, they were able to efficiently capture the virus particles as evidenced by retention of p24 antigen of HIV-1 on the Raji/DC-SIGN cells (˜1200 pg p24). […] The CBA could prevent >90% of HIV-1 capture at concentrations >2 μM for GNA, HHA and CA; >10 μM for UDA and >60 μM for PRM-A.
# HCVcc (subtype 2a) = assay: Infectious HCVcc (subtype 2a) infection of Huh7 cells, luciferase activity; assay type: cell-based, HCV
# Procedure: Huh7 cells (2×10^4) were plated and 24 hours later infected with supernatants containing infectious HCVcc pre-mixed with serial dilutions of lectins or polyanions. Mannan (2.5 mg/ml; Sigma) was added to some of the mixtures prior to Huh7 infection. After 24 hours post infection, the mixture of virus and test compounds was replaced by fresh medium, cells were brought at 37° C. and luciferase activity was measured in the cell lysates 24 hours later.
# The inhibitory activities of carbohydrate binding small molecules and agents against infectious HIV-1 (strain IIIB), HIV-2 (strain ROD) and HCVcc (subtype 2a) were evaluated in human T lymphocyte cells (CEM) and human hepatocellular carcinoma cells (Huh-7), respectively (Table 1). […] The effect of mannan on the antiviral activity of the CBA was investigated.
# [3] = in the presence of mannan 2.5 mg/ml, read-out: HIV-1 EC50 +Mannan (2.5 mg/ml)
# [4] = virus-induced cytopathicity, mean ±SD, read-out: EC50 HIV-1(IIIB) (CEM)
# [5] = without mannan (Table 3), read-out: HIV-1 EC50 As such
# [6] = in the presence of mannan 2.5 mg/ml, read-out: HCV(2a) EC50 +Mannan (2.5 mg/ml)
# [7] = luciferase activity, mean ±SD, read-out: EC50 HCV (2a) (Huh7)
# [8] = without mannan (Table 3), read-out: HCV(2a) EC50 As such
Molecule,EC50 Influenza A H1N1 (Influenza A H1N1) [µg/mL],EC50 HIV-1R (N44.3) (CEM) [1] [µg/mL],EC50 HCVpp (1a) (HCVpp (1a); Alcian Blue table),EC50 HUT-78/HIV + Sup T-1 (HUT-78/HIV + Sup T-1),EC50 Influenza A H3N2 (Influenza A H3N2) [µg/mL],EC50 Influenza B (Influenza B) [µg/mL],EC50 HIV-1 (NL4.3) (CEM) (HIV-1 (NL4.3)) [µg/mL],EC50 (HIV-1 (strain IIIB); [3]) [nM],EC50 (HIV-1 (strain IIIB); [4]) [nM],EC50 (HIV-1 (strain IIIB); [5]) [nM],EC50 (HCVpp (1b)) [nM],EC50 (HIV-2 (strain ROD)) [nM],EC50 (VSVpp) [nM],EC50 (HCVpp (1a)) [nM],EC50 (HCVpp (2b)) [nM],concentration preventing >90% of HIV-1 capture by Raji/DC-SIGN cells [2] [µM],EC50 (HCVcc (subtype 2a); [6]) [nM],EC50 (HCVcc (subtype 2a); [7]) [nM],EC50 (HCVcc (subtype 2a); [8]) [nM],decrease of antiviral activity against HIV-1 in the presence of mannan (HIV-1 (strain IIIB); mannan) [fold]
Alcian Blue,>20,>50,30^d μg/ml,4.5 ± 1.5^c μg/ml,>20,>20,5 ± 1,,,,,,,,,,,,,
"CN[C@@H]1[C@H](O[C@@H]2OC[C@@H](O)[C@H](O)[C@H]2O)[C@@H](O)[C@H](O[C@H]2c3cc(C)c(C(=O)N[C@H](C)C(=O)O)c(O)c3-c3c(cc4c(c3O)C(=O)c3cc(OC)cc(O)c3C4=O)[C@@H]2O)O[C@@H]1C [PRM-A, pradimicin A, reference compound]",1.9,,,,1.6,2.4,,40000 ± 13000,3360 ± 1200,5300 ± 780,1670 ± 60,1800,> 60000,1170 ± 310,924 ± 156,> 60,> 30000,3610 ± 780,3610 ± 780,
B1,4.1,,,,0.99,,,459,140 ± 40,149 ± 40,19 ± 22,391 ± 106,> 11000,32 ± 15,50 ± 54,> 10,560 ± 108,176 ± 29,176 ± 29,3
